Read-outs that look alike come from different tables or passages of the source. Each block holds one compound with its values, some of them ahead of it.
Tests used:
[1] = target: porcine pancreatic elastase (Sus scrofa, UniProt P00772); test: Inhibition of porcine pancreatic (PP) elastase in vitro, substrate BOC-Ala-ONp, Lineweaver-Burk and Dixon plots; type: biochemical; conditions: for PPE (inhibitory activity towards PP elastase): Table 4
Description: As pointed out above, the compounds of the invention are useful as elastase inhibitors. To evaluate the compounds, the inhibitory activity of the compounds were tested in vitro against the serine dependent proteolytic enzymes, trypsin, chymotrypsin and porcine pancreatic elastase. All three enzymes belong to the family of serine proteases where the catalytic residues are composed of a triad of amino acid residues, serine, histidine and aspartic acid that actually perform the peptide bond hydrolysis. In addition to the catalytic residues, the active site is composed of an extended substrate binding site that consists of a primary substrate binding site S1, and various subsites on either side of the scissile bond.
The rate and extent of inhibition could be effected by varying the structure of R and R'. As shown from kinetic parameters when R is p-nitrophenol, and R' was varied, all the peptidyl carbamates inhibited PP elastase except when R' was a tert-butyl group. […] In all cases the inhibition was specific and competitive. […] Moreover, the nature of the protecting group (P5) seemed to affect the affinity of the inhibitor for the enzyme. In all these cases the inhibition was studied at different substrate and inhibitor concentrations and the mode of inhibition determined from Lineweaver-Burk and Dixon plots. Ki values were calculated from the latter. […] The enzymatic activity of PP elastase after treatment with the inhibitor(s) was also tested using the natural substrate elastin-congored.

HL elastase = target: T1, HL elastase (Homo sapiens, UniProt P08246); test: Inhibition of human leukocyte (HL) elastase; type: biochemical; conditions: Table 4; [E] = 0.61 μM
T1 sequence (P08246 30-267): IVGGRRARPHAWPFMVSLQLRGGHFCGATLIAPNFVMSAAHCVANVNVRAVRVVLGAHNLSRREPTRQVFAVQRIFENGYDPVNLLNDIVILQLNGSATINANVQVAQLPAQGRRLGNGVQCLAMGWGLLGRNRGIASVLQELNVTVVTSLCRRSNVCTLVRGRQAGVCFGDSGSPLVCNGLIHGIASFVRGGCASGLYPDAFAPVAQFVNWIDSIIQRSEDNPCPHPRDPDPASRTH

[2] = Table 1, changes in P1', PP elastase, read-out: Ki
[3] = Table 1, changes in P1', [E] = 0.61 μM
[4] = Table 2, changes in P1, [E] = 0.61 μM
[5] = Table 3, variations in P5 and P3

porcine pancreatic elastase, sequence (P00772 27-266): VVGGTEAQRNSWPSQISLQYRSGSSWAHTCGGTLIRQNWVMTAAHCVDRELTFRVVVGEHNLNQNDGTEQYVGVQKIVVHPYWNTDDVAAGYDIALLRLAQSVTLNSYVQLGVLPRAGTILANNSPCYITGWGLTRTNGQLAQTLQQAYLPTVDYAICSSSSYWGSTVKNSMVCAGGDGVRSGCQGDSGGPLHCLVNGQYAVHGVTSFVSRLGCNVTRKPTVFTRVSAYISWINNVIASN

Km ([1]; substrate of PP elastase assay): 4.8 mM
Compound: C[C@H](NC(=O)OC(C)(C)C)C(=O)Oc1ccc([N+](=O)[O-])cc1 [BOC-Ala-ONp, reference compound]

Hydrolysis by PP elastase ([1]; detected by the release of p-nitrophenol): hydrolysis of 6 by PP elastase
Compound: CC(C)N(CC(=O)[C@@H]1CCCN1C(=O)OC(C)(C)C)C(=O)Oc1ccc([N+](=O)[O-])cc1 [Compound 6, p-Nitrophenyl N-(N'-t-Boc-L-prolyl)Methyl-N-Isopropylcarbamate]

Ki [1, 2]: 42.5 µM
Comments (inhibition of PP elastase) [1, 3]: +
Comments (inhibition of PP elastase) [1, 4]: +
Compound: COC(=O)CCC(=O)N[C@@H](C)C(=O)N[C@@H](C)C(=O)N1CCC[C@H]1C(=O)CN(C(=O)Oc1ccc([N+](=O)[O-])cc1)C(C)C [Compound 10, p-Nitrophenyl N-(Methy Succinyl-L-Alanyl-L-Alanyl-L-Prolymethyl)-N-Isopropyl Carbamate]

Ki [1, 2]: 32.5 µM
Comments (inhibition of PP elastase) [1, 3]: +
Compound: COC(=O)CCC(=O)N[C@@H](C)C(=O)N[C@@H](C)C(=O)N1CCC[C@H]1C(=O)CN(C(=O)Oc1ccccc1)C(C)C [Compound 11, Phenyl N-(Methyl Succinyl-L-Alanyl-L-Alanyl-L-Prolyl Methyl)-N-Isopropyl Carbamate]

Compound: COC(=O)CCC(=O)N[C@@H](C)C(=O)N[C@@H](C)C(=O)N1CCC[C@H]1C(=O)CN(C(=O)Sc1nnnn1C)C(C)C [Compound 18]
Ki [1, 2]: 14.8 µM
Comments (inhibition of PP elastase) [1, 3]: +

Ki ([1]; Table 2, changes in P1, PP elastase, read-out: Ki): 30.5 µM
Comments (inhibition of PP elastase) [1, 4]: +
Compound: CCCN(CC(=O)[C@@H]1CCCN1C(=O)[C@H](C)NC(=O)[C@H](C)NC(=O)CCC(=O)OC)C(=O)Oc1ccc([N+](=O)[O-])cc1 [Compound 29, P-Nitrophenyl N-(methyl succinyl-L-alanyl-L-alanyl-L-prolylmethyl) N-propylcarbamate]

Comments (inhibition of PP elastase) [1, 4]: +
Compound: COC(=O)CCC(=O)N[C@@H](C)C(=O)N[C@@H](C)C(=O)N1CCC[C@H]1C(=O)CN(C(=O)Oc1ccc([N+](=O)[O-])cc1)C1CC1 [Compound 32, P-Nitrophenyl N-(methyl succinyl-L-alanyl-L-analyl-L-prolylmethyl)-N-cyclopropylcarbamate]

Compound: COC(=O)CCC(=O)N[C@@H](C)C(=O)N[C@@H](C)C(=O)N1CCC[C@H]1C(=O)CN(CC(C)C)C(=O)Oc1ccc([N+](=O)[O-])cc1 [Compound 47, p-Nitrophenyl N-(methylsuccinyl-L-alanyl-L-alanyl-L-prolylmethyl)-N-(2-methyl)propylcarbamate]
PPE (inhibitory activity towards PP elastase) ([1]; [E] = 0.61 μM): - (No inhibition at [I] < 150 μM using [E] = 0.61 μM.)

Compound: COC(=O)CCC(=O)N[C@@H](C)C(=O)N[C@@H](C)C(=O)N1CCC[C@H]1C(=O)CN(Cc1ccccc1)C(=O)Oc1ccc([N+](=O)[O-])cc1 [Compound 51, P-Nitrophenyl N-(methyl succinyl-L-alanyl-L-alanyl-L-prolylmethyl)-N-phenylmethylcarbamate]
PPE (inhibitory activity towards PP elastase) ([1]; [E] = 0.61 μM): - (No inhibition at [I] < 150 μM using [E] = 0.61 μM.)
HLE (inhibitory activity towards HL elastase) (HL elastase): - (No inhibition at [I] < 150 μM using [E] = 0.61 μM.)

Compound: COC(=O)CCC(=O)N[C@@H](C)C(=O)N[C@@H](C)C(=O)N1CCC[C@H]1C(=O)CN(C(=O)Oc1ccc([N+](=O)[O-])cc1)C1CCCCC1 [Compound 55, P-Nitrophenyl N-(methyl succinyl-L-alanyl-L-alanyl-L-prolylmethyl)-N-cyclohexylcarbamate]
PPE (inhibitory activity towards PP elastase) ([1]; [E] = 0.61 μM): - (No inhibition at [I] < 150 μM using [E] = 0.61 μM.)
HLE (inhibitory activity towards HL elastase) (HL elastase): - (No inhibition at [I] < 150 μM using [E] = 0.61 μM.)

Ki [1, 2]: 37.5 µM
Comments (inhibition of PP elastase) [1, 3]: +
Comments (inhibition of PP elastase) [1, 5]: +
Compound: COC(=O)CCC(=O)N[C@@H](C)C(=O)N[C@@H](C)C(=O)N1CCC[C@H]1C(=O)CN(C(=O)Oc1c(F)c(F)c(F)c(F)c1F)C(C)C [Compound 58, Pentafluorophenyl N-(methyl succinyl-L-analyl-L-alanyl-L-prolymethyl)-N-isopropyl-carbamate]

Compound: COC(=O)CCC(=O)N[C@@H](C)C(=O)N[C@@H](C)C(=O)N1CCC[C@H]1C(=O)CN(C(=O)OCC(F)(F)C(F)(F)C(F)(F)F)C(C)C [Compound 61, Heptafluorobutyl N-(methyl succinyl-L-alanyl-L-alanyl-L-prolylmethyl)-N-isopropylcarbamate]
Comments (inhibition of PP elastase) [1, 3]: +

Compound: COC(=O)CCC(=O)N[C@@H](C)C(=O)N[C@@H](C)C(=O)N1CCC[C@H]1C(=O)CN(C)C(=O)Oc1ccc([N+](=O)[O-])cc1 [Compound 68, p-Nitropheny N-(methyl succinyl-L-alanyl-L-alanyl-L-prolymethyl)-N-methyl-carbamate]
Comments (inhibition of PP elastase) [1, 4]: +

Compound: COC(=O)CCC(=O)N[C@@H](C)C(=O)N[C@@H](C)C(=O)N1CCC[C@H]1C(=O)CN(C(=O)Oc1ccc([N+](=O)[O-])cc1)C(C)(C)C [Compound 72]
Comments (inhibition of PP elastase) [1, 4]: - (NO INHIBITION OF PP ELASTASE AT [I] < 150 μM USING [E] = 0.61 μM)

Compound: CC(C)N(CC(=O)[C@@H]1CCCN1C(=O)[C@H](C)NC(=O)[C@H](C)NC(=O)C(F)(F)F)C(=O)Oc1c(F)c(F)c(F)c(F)c1F [Compound 93, Pentafluorophenyl N-(trifluoroacetyl-L-alanyl-L-alanyl-L-prolylmethyl)-N-isopropylcarbamate]
Ki [1]: 49 µM
Comments (inhibition of PP elastase) [1, 5]: +

Source: patent publication US4643991A (The University of Kentucky Research Foundation, priority 1984, dated 1987)
